In patent US8658131B2, “Compounds comprising 4-benzoylpiperidine as a sigma-1-selective ligand” (Washington University, priority 2010, dated 2014):
Several values for one entry are separate records, joined by “and”; a condition that tells them apart may be missing. Equal values may be shown once. Where a name gives a salt, the structure may show the parent alone. Read-outs that look alike come from different tables or passages of the source. Each block holds one compound with its values, some of them ahead of it.

What was measured:
[1] = target: T1, σ1 receptor (Cavia porcellus, UniProt Q60492); assay: σ1 receptor binding assay, (+)-[3H]pentazocine, guinea pig brain membranes
T1 construct: using guinea pig brain membrane homogenates; from tissue; host or cells: guinea pig brain membrane homogenates
T1 sequence (Q60492 whole entry): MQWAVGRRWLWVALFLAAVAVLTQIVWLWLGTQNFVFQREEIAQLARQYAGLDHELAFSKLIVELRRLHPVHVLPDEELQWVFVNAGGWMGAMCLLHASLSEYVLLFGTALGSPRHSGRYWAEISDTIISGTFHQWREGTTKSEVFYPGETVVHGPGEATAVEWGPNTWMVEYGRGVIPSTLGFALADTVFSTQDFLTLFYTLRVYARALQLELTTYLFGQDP
Experimental: (§1) The compounds were dissolved in DMF, DMSO, or ethanol, and then diluted in 50 mM Tris-HCl buffer containing 150 mM NaCl and 100 mM EDTA at pH 7.4, prior to performing the σ1 and σ2 receptor binding assays.
The total incubation time was 90 min at room temperature. Nonspecific binding was determined from samples that contained 10 μM of cold haloperidol. After 90 min, the reaction was quenched by adding 150 μL of ice-cold wash buffer (10 mM Tris-HCl, 150 mM NaCl, pH 7.4) using a 96 channel transfer pipet (Fisher Scientific, Pittsburgh, Pa.). The samples were harvested and filtered rapidly through a 96-well fiberglass filter plate (Millipore, Billerica, Mass.) that had been presoaked with 100 μL of 50 mM Tris-HCl buffer at pH 8.0 for 1 h.
(§2) Ki values were calculated using the method of Cheng and Prusoff and are presented as the mean (±1 SEM).

[2] = target: T2, σ2 receptor (Rattus norvegicus, UniProt Q5U3Y7); assay: σ2 receptor binding assay, [3H]DTG, rat liver membrane homogenates; parameters: conducted using rat liver membrane homogenates; from tissue; host or cells: rat liver membrane homogenates
T2 sequence (Q5U3Y7 1-176): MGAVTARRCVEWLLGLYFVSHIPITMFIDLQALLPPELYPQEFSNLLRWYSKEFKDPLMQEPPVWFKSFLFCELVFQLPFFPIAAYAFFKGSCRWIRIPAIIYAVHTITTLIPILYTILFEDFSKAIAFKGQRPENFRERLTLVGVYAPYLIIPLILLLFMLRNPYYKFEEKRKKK
Experimental: as §1
The incubation time was 2 h at room temperature. Nonspecific binding was determined from samples that contained 10 μM of cold haloperidol. All other procedures were identical to those described for the σ1 receptor binding assay above.
as §2

[3] = target: T3, human vesicular acetylcholine transporter (VAChT) (Homo sapiens, UniProt Q16572); assay: VAChT binding assay, (−)-[3H]vesamicol, human VAChT expressed in PC12 cells
T3 construct: expressed in transfected cells; host or cells: PC12 A123.7 cells (crude extract / homogenized, partially clarified cells)
T3 sequence (Q16572 1-532): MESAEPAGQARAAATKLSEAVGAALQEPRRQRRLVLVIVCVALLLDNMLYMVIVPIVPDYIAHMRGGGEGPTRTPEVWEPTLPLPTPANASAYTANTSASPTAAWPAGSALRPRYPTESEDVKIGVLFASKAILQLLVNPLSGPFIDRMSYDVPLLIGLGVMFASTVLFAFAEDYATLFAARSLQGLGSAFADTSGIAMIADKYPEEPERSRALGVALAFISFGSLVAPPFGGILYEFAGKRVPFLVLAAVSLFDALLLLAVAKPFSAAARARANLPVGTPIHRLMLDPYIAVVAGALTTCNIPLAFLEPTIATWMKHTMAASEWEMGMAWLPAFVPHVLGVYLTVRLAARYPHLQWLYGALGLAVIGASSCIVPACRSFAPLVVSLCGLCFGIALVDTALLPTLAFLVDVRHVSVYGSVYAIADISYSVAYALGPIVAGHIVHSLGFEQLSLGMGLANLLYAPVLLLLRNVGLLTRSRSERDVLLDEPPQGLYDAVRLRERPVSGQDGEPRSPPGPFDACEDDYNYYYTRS
Experimental: In vitro binding assays of these novel compounds to VAChT were conducted with human vesicular acetylcholine transporter (VAChT) permanently expressed in PC12^A123.7 cells at about 50 pmol/mg of crude extract. […] Duplicate data were averaged and fitted by regression with a rectangular hyperbola to estimate the Ki value of the novel compound. All compounds were independently assayed at least two times.

[4] = target: T2, σ2 receptor; assay: σ2 binding of Table 5 compounds; parameters: species or system guinea pig; conditions: read-out: σ2 Ki (nM) ± SEM; Table 6
Experimental: Compounds were tested for VAChT binding using highly purified Torpedo synaptic vesicles. The σ1 and σ2 binding affinities were tested in rat brain and in guinea pig membranes, respectively. Structures and Equilibrium binding constants (Ki) are reported in Table 5 and Table 6, respectively. As in previous studies, we define ligand selectivity in terms of a selectivity index which is calculated as Ki (σ1 or σ2)/Ki (VAChT).
Consequently, we also screened the target compounds for sigma binding to identify selective VAChT ligands from this new structural class of agents.

[5] = target: T4, VAChT (Tetronarce californica, UniProt P81721); assay: biochemical; assay type: binding; conditions: for VAChT/σ selectivity: in words; for σ1/VAChT: selectivity index Ki (σ1)/Ki (VAChT); for σ2/VAChT: selectivity index Ki (σ2)/Ki (VAChT)
T4 construct: using highly purified Torpedo synaptic vesicles; from tissue
T4 sequence (P81721 1-515): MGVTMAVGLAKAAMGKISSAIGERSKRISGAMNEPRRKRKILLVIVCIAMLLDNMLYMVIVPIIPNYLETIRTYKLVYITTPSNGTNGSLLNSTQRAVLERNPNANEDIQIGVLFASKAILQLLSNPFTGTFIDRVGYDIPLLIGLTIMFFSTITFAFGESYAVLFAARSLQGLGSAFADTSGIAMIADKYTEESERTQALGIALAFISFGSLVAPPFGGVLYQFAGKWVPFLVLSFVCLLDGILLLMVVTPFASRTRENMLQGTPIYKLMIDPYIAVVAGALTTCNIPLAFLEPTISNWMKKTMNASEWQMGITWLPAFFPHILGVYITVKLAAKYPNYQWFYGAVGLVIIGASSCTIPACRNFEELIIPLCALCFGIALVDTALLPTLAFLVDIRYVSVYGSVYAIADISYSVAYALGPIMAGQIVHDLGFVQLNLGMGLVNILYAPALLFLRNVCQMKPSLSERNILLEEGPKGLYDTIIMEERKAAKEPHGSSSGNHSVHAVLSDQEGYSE

[6] = Table 4, Ki values of VAChT specific compounds, tissue not given, read-out: Sigma-2 σ1
[7] = Table 4, Ki values of VAChT specific compounds, source not given, read-out: VAChT
[8] = Table 4, Ki values of VAChT specific compounds, tissue not given, read-out: Sigma-1 σ1
[9] = expressed human VAChT, mean ± SEM, read-out: VAChT (Ki)
[10] = homogenates of rat liver, mean ± SEM, read-out: σ2 (Ki)

Ki [2, 6]: 14700 ± 1940 nM | Ki [3, 7]: 366 ± 36 nM | Ki [1, 8]: 3690 ± 537 nM
Compound: Nc1cccc2c1CC(N1CCC(C(=O)c3ccc(F)cc3)CC1)C(O)C2 (single isomer, unassigned) [WW-1-88-1]

Ki [2, 6]: 6890 ± 546 nM | Ki [3, 7]: 20.9 ± 4.98 nM | Ki [1, 8]: 3550 ± 438 nM
Compound: Nc1cccc2c1CC(N1CCC(C(=O)c3ccc(F)cc3)CC1)C(O)C2 (single isomer, unassigned) [WW-1-88-2]

Ki [3, 9]: 3600 ± 499 nM
Compound: O=C(c1ccc(F)cc1)C1CCN(C2CCN(C(=O)c3ccc(F)cc3)CC2O)CC1 (centres unmarked) [Compound 15a, (3′-Hydroxy-[1,4′-bipiperidine]-1′,4-diyl)bis(4-fluorophenyl)methanone]

Ki [2, 6]: 1953 ± 13.1 nM | Ki [3, 7]: 4.64 ± 0.47 nM | Ki [1, 8]: 132 ± 10.1 nM
Compound: COc1ccc(C(=O)C2CCN(C3Cc4ccccc4CC3O)CC2)cc1 (centres unmarked) [DZT-I-107]

Ki [2, 6]: 3950 ± 278 nM
Compound: O=C(c1ccc(F)cc1)C1CCN(C2CN(C(=O)c3ccccc3)CCC2O)CC1 (centres unmarked) [WW-1-39]

Ki [2, 6]: 2600 ± 363 nM
Compound: COc1ccc(C(=O)C2CCN(C3CN(C(=O)c4ccc(F)cc4)CCC3O)CC2)cc1 (centres unmarked) [WW-1-107]

Ki [2, 6]: 1380 ± 135 nM | Ki [3, 7]: 8700 ± 1620 nM
Compound: O=C(c1ccc(F)cc1)C1CCN(C2CN(C(=O)c3ccc(F)cc3)CCC2O)CC1 (centres unmarked) [WW-1-123]

Ki [2, 6]: 16400 ± 1480 nM
Compound: Cc1ccc(C(=O)N2CCC(O)C(N3CCC(C(=O)c4ccc(F)cc4)CC3)C2)s1 (centres unmarked) [WW-III-41]

Ki [2, 6]: 4050 ± 244 nM
Compound: O=C(c1ccc(F)cc1)C1CCN(C2CN(C(=O)c3cccs3)CCC2O)CC1 (centres unmarked) [WW-III-43]

Ki [2, 6]: 15500 ± 2170 nM | Ki [3, 7]: 807 ± 139 nM
Compound: O=C(c1ccc(F)cc1)C1CCN(C2CN(C(=O)c3cccnc3)CCC2O)CC1 (centres unmarked) [WW-III-45]

Ki [2, 6]: 13000 ± 2630 nM | Ki [3, 7]: 237 ± 41.4 nM | Ki [1, 8]: 1160 ± 128 nM
Compound: O=C(c1ccc(F)cc1)C1CCN(C2CN(Cc3cccnc3)CCC2O)CC1 (centres unmarked) [WW-III-47]

Continued, compound first:

Compound: O=C(c1ccc(F)cc1)C1CCN(C2CCN(Cc3ccc(F)cc3)CC2O)CC1 (racemic) [Compound 14a, (1′-(4-Fluorobenzyl)-3′-hydroxy-[1,4′-bipiperidin]-4-yl)(4-fluorophenyl)methanone]
Ki ([1]; membrane preparations of guinea pig brain, mean ± SEM, at least three experiments, read-out: σ1 (Ki)): < 5 nM and 0.48 nM

Compound: COc1ccc(C(=O)C2CCN(C3CN(Cc4ccccc4)CCC3O)CC2)cc1 (centres unmarked) [Compound 16g, (1′-Benzyl-4′-hydroxy-[1,3′-bipiperidin]-4-yl)(4-methoxyphenyl)methanone]
Ki [2, 10]: 8540 ± 1900 nM | Ki [3, 9]: 35.5 ± 11.1 nM

Compound: Cc1ccc(C(=O)C2CCN(C3Cc4c(N)cccc4CC3O)CC2)cn1 (centres unmarked) [OS-5-70, (1-(8-amino-3-hydroxy-1,2,3,4-tetrahydronaphthalen-2-yl)piperidin-4-yl)(6-methylpyridin-3-yl)methanone oxalate]
Ki [2, 6]: 27500 ± 6940 nM | Ki [3, 7]: 48 ± 11.4 nM | Ki [4]: 27500 ± 6940 nM | Ki [5]: 48 ± 11.4 nM

Compound: COc1cccnc1C(=O)C1CCN(C2Cc3ccccc3CC2O)CC1 (centres unmarked) [TZ-4-1-92, (1-(3-Hydroxy-1,2,3,4-tetrahydronaphthalen-2-yl)piperidin-4-yl)(3-methoxypyridin-2-yl)methanone oxalate]
Ki [4]: 1560 ± 63 nM | Ki [5]: 121 ± 29.2 nM | VAChT/σ selectivity [5]: poor selectivity | σ1/VAChT [5]: 173.3 | σ2/VAChT [5]: 12.9

Compound: O=C(c1cncc(F)c1)C1CCN(C2Cc3ccccc3CC2O)CC1 (centres unmarked) [TZ-4-1-96, (5-Fluoropyridin-3-yl)(1-(3-hydroxy-1,2,3,4-tetrahydronaphthalen-2-yl)piperidin-4-yl)methanone oxalate]
Ki [4]: 1690 ± 56 nM | Ki [5]: 10.1 ± 1.54 nM | VAChT/σ selectivity [5]: moderate or high | σ1/VAChT [5]: 70.2 | σ2/VAChT [5]: 167.3

Compound: Cn1ccc(C(=O)C2CCN(C3Cc4ccccc4CC3O)CC2)c1 (centres unmarked) [TZ-4-1-114, (1-(3-Hydroxy-1,2,3,4-tetrahydronaphthalen-2-yl)piperidin-4-yl)(1-methyl-1H-pyrrol-3-yl)methanone oxalate]
Ki [4]: 7710 ± 1060 nM

Compound: O=C(c1cccnc1F)C1CCN(C2Cc3ccccc3CC2O)CC1 (centres unmarked) [TZ-4-1-122, (2-fluoropyridin-3-yl)(1-(3-hydroxy-1,2,3,4-tetrahydronaphthalen-2-yl)piperidin-4-yl)methanone]
Ki [4]: 3530 ± 331 nM | Ki [5]: 12.7 ± 2.41 nM | VAChT/σ selectivity [5]: moderate or high | σ1/VAChT [5]: 102.2 | σ2/VAChT [5]: 277.9

Compound: Cn1c(C(=O)C2CCN(C3Cc4ccccc4CC3O)CC2)cccc1=O (centres unmarked) [TZ-4-1-148, 6-(1-(3-Hydroxy-1,2,3,4-tetrahydronaphthalen-2-yl)piperidine-4-carbonyl)-1-methylpyridin-2(1H)-one]
Ki [4]: 3340 ± 127 nM | Ki [5]: 182 ± 64.8 nM | VAChT/σ selectivity [5]: poor selectivity | σ1/VAChT [5]: 11.8 | σ2/VAChT [5]: 18.3

Compound: Cn1ccc(C(=O)C2CCN(C3Cc4ccccc4CC3O)CC2)cc1=O (centres unmarked) [TZ-4-1-150, 4-(1-(3-Hydroxy-1,2,3,4-tetrahydronaphthalen-2-yl)piperidine-4-carbonyl)-1-methylpyridin-2(1H)-one oxalate]
Ki [4]: 2120 ± 251 nM | Ki [5]: 66.2 ± 10.2 nM | VAChT/σ selectivity [5]: moderate or high | σ1/VAChT [5]: 50.5 | σ2/VAChT [5]: 32.1

Compound: O=C(c1ccc(F)nc1)C1CCN(C2Cc3ccccc3CC2O)CC1 (centres unmarked) [TZ-4-1-154, (6-fluoropyridin-3-yl)(1-(3-hydroxy-1,2,3,4-tetrahydronaphthalen-2-yl)piperidin-4-yl)methanone oxalate]
Ki [4]: 1750 ± 93 nM | Ki [5]: 26.1 ± 2.41 nM | VAChT/σ selectivity [5]: moderate or high | σ1/VAChT [5]: 26.2 | σ2/VAChT [5]: 67.0

Compound: O=C(c1ncccc1OCCF)C1CCN(C2Cc3ccccc3CC2O)CC1 (centres unmarked) [TZ-4-2-12, (3-(2-fluoroethoxy)pyridin-2-yl)(1-(3-hydroxy-1,2,3,4-tetrahydronaphthalen-2-yl)piperidin-4-yl)methanone oxalate]
Ki [4]: 303 ± 130 nM | Ki [5]: 76.4 ± 8.33 nM | VAChT/σ selectivity [5]: poor selectivity | σ1/VAChT [5]: 262.0 | σ2/VAChT [5]: 4.0

Compound: COc1ccc(C(=O)N2CCC(O)C(N3CCC(C(=O)c4ccc(F)cc4)CC3)C2)cc1 (centres unmarked) [WW-1-35]
Ki [2, 6]: > 10000 nM

Compound: COc1ccc(C(=O)C2CCN(C3CN(C(=O)c4ccccc4)CCC3O)CC2)cc1 (centres unmarked) [WW-1-67]
Ki [2, 6]: 4850 ± 649 nM

Compound: COc1ccc(C(=O)C2CCN(C3CN(Cc4ccccc4)CCC3O)CC2)cc1 (centres unmarked) [WW-1-109]
Ki [2, 6]: 8540 ± 1900 nM | Ki [3, 7]: 35.5 ± 11.1 nM | Ki [1, 8]: 208 ± 53 nM

Compound: COc1ccc(C(=O)C2CCN(C3CN(C(=O)c4cccnc4)CCC3O)CC2)cc1 (centres unmarked) [WW-III-13]
Ki [2, 6]: 24300 ± 1910 nM

Compound: COc1ccc(C(=O)C2CCN(C3CN(C(=O)c4ccc(C)s4)CCC3O)CC2)cc1 (centres unmarked) [WW-III-17]
Ki [2, 6]: 24400 ± 3630 nM

Compound: COc1ccc(C(=O)C2CCN(C3CN(C(=O)c4cccs4)CCC3O)CC2)cc1 (centres unmarked) [WW-III-21]
Ki [2, 6]: 6380 ± 1000 nM

Compound: COc1ccc(C(=O)C2CCN(C3CN(Cc4cccnc4)CCC3O)CC2)cc1 (centres unmarked) [WW-III-25]
Ki [2, 6]: 17100 ± 3860 nM | Ki [3, 7]: 107 ± 11.1 nM | Ki [1, 8]: 2230 ± 168 nM

Compound: Cc1ccsc1C(=O)N1CCC(O)C(N2CCC(C(=O)c3ccc(F)cc3)CC2)C1 (centres unmarked) [WW-III-39]
Ki [2, 6]: 4220 ± 205 nM

Compound: (4′-Hydroxy-1′-(pyridin-4-ylmethyl)-[1,3′-bipiperidin]-4-yl)(4-methoxyphenyl)methanone [Compound 16h]
Ki [2, 10]: 17100 ± 3860 nM
